Measured values taken from US20150291565A1, “INDOLE COMPOUNDS AND THEIR USE AS ANTIMICROBIALS” (Memorial Sloan-Kettering Cancer Center, priority 2012, published 2015).
Values after ≈ are worked out from the molar mass of the structure shown. Read-outs that look alike come from different tables or passages of the source.

Assays:
[1] = tested on: K. pneumoniae ATCC 51503; assay: Broth dilution MIC, K. pneumoniae ATCC 51503; assay type: cell-based; conditions: Klebsiella pneumoniae
[2] = tested on: MRSA; assay: Disk diffusion assay, zone of inhibition, MRSA; assay type: cell-based, Staphylococcus aureus; conditions: disk diffusion zone of inhibition
[3] = tested on: E. coli ECM 1694; assay: Broth dilution MIC, E. coli ECM 1694; assay type: cell-based; conditions: Escherichia coli
[4] = tested on: E. faecium CT-26; assay: Broth dilution MIC, E. faecium CT-26; assay type: cell-based; conditions: Enterococcus faecium
[5] = tested on: M. smegmatis (mc2155); assay: Disk diffusion assay, zone of inhibition, M. smegmatis; assay type: cell-based; conditions: disk diffusion zone of inhibition
[6] = tested on: S. pneumoniae ATCC 700674 (PRSP); assay: Broth dilution MIC, S. pneumoniae ATCC 700674; assay type: cell-based; conditions: Streptococcus pneumoniae
[7] = tested on: S. aureus ATCC 29213 (MSSA); assay: Broth dilution MIC, S. aureus ATCC 29213; assay type: cell-based; conditions: Staphylococcus aureus
[8] = tested on: S. aureus BAA-39 (MDR); assay: Broth dilution MIC, S. aureus BAA-39; assay type: cell-based; conditions: for MIC: Staphylococcus aureus, BAA39
[9] = tested on: S. aureus ATCC 33591 (MRSA); assay: Broth dilution MIC, S. aureus ATCC 33591; assay type: cell-based; conditions: for MIC: Staphylococcus aureus
[10] = tested on: K. pneumoniae ATCC 13883; assay: Broth dilution MIC, K. pneumoniae ATCC 13883; assay type: cell-based; conditions: Klebsiella pneumoniae
[11] = tested on: E. coli ATCC 25922; assay: Broth dilution MIC, E. coli ATCC 25922; assay type: cell-based; conditions: Escherichia coli
[12] = tested on: P. aeruginosa ATCC 9027; assay: Broth dilution MIC, P. aeruginosa ATCC 9027; assay type: cell-based; conditions: Pseudomonas aeruginosa
[13] = tested on: E. faecalis ATCC 29212 (VRE); assay: Broth dilution MIC, E. faecalis ATCC 29212; assay type: cell-based
[14] = tested on: C. albicans ATCC 14053; assay: Broth dilution MIC, C. albicans ATCC 14053; assay type: cell-based; conditions: Candida albicans, ATCC14053; Table 1; range 64 down to 0.12 μg/ml
Description: In vitro Anti-bacterial & Anti-fungal Activity Assay: All test compounds were prepared as 6.4 mg/ml stock solutions in DMSO and further diluted according to the NCCLS M7-A6 (Page 5) document with sterile water or appropriate diluent. A working stock of 256 μg/ml was used to do 1:2 serial dilutions in 96-well plates. […] The inoculums were prepared by making a direct sterile water suspension of isolated colonies from 18 to 24 hr agar plates for all organisms (Mueller Hinton, Blood Agar or SDA plates). Each bacterial suspension was adjusted to read between 0.09 and 0.11 absorbance at 620 nm. […] These were further diluted 1/100 in appropriate broth for inoculating the 96-well plates. The C. albicans suspension was adjusted to read between 70 and 75% Transmittance at 530 nm and then diluted 1/500 in RPMI+MOPS broth. All aerobic bacterial and fungal plates were incubated for 18 hrs. at 35° C. […] Plates were read using a Beckman Automated Plate Reader at 650 nm. Readings were confirmed by visual examination of plates. (See Table 1, Table 2, Table 3, and Table 4). […] It is important to note that positive results against C. albicans are often indicative of broad spectrum antifungal activity, while negative results are not necessarily conclusory of a lack of activity against other fungus.

[15] = tested on: E. faecium ATCC 700221 (VRE); assay: Broth dilution MIC, E. faecium ATCC 700221; assay type: cell-based
[16] = tested on: S. pneumoniae ATCC 6301 (PSSP); assay: Broth dilution MIC, S. pneumoniae ATCC 6301; assay type: cell-based; conditions: Streptococcus pneumoniae

`c1cncc(Nc2ccc(-c3cc4ccc(C5=NCCN5)cc4[nH]3)cc2)c1` [SKI-4] was tested. Which MIC ([1]; ATCC51503, Table 1, range 64 down to 0.12 μg/ml, read-out: MIC K. pneumoniae ATCC 51503) did it give?
The MIC was over 64 µg/mL.

And the MIC ([1]; ATCC51503, Table 2, broth dilution MIC in ug/ml, read-out: MIC K pneumonia ATCC 51503)?
Its MIC is 64 µg/mL (≈ 181 µM).

What about the “Zone Size MRSA” value [2] of the same molecule?
Its value is 14 mm.

And the MIC ([3]; ECM1694, Table 1, range 64 down to 0.12 μg/ml, read-out: MIC E. coli ECM 1694)?
The MIC was at most 0.12 µg/mL.

And the MIC ([3]; ECM1694, Table 2, broth dilution MIC in ug/ml, read-out: MIC E. coli ECM 1693)?
Its MIC is 0.12 µg/mL (≈ 0.34 µM).

What about the MIC ([3]; ECM1694, Table 3, starting at 4 μg/ml, read-out: MIC E. coli ECM 1694) of the same molecule?
Its MIC is 0.12 µg/mL (≈ 0.34 µM).

And the MIC ([4]; CT26, Table 1, range 64 down to 0.12 μg/ml, read-out: MIC E. faecium CT-26)?
Its MIC is 0.25 µg/mL (≈ 0.707 µM).

What about the MIC ([4]; CT26, Table 2, broth dilution MIC in ug/ml, read-out: MIC E faecium CT-25) of the same molecule?
Its MIC is 0.25 µg/mL (≈ 0.707 µM).

What about the MIC ([4]; CT26, Table 3, starting at 4 μg/ml, read-out: MIC E. faecium CT-26) of the same molecule?
The MIC was 0.25 µg/mL (≈ 0.707 µM).

And the “Zone Size M. smegmatis” value [5]?
Its value is 27.6 mm.

What about the MIC ([6]; Table 1, range 64 down to 0.12 μg/ml, read-out: MIC S. pneumoniae ATCC 700674) of the same molecule?
The MIC was 0.5 µg/mL (≈ 1.41 µM).

And the MIC ([6]; Table 2, broth dilution MIC in ug/ml, read-out: MIC S pneumonia ATCC 700674 PRSP)?
The MIC was 0.5 µg/mL (≈ 1.41 µM).

What about the MIC ([6]; Table 3, starting at 4 μg/ml, read-out: MIC S. pneumoniae ATCC 700674) of the same molecule?
Its MIC is 0.5 µg/mL (≈ 1.41 µM).

And the MIC ([7]; Table 3, starting at 4 μg/ml, read-out: MIC S. aureus ATCC 29213)?
Its MIC is 1 µg/mL (≈ 2.83 µM).

What about the MIC ([7]; Table 1, range 64 down to 0.12 μg/ml, read-out: MIC S. aureus ATCC 29213) of the same molecule?
The MIC was 2 µg/mL (≈ 5.66 µM).

What about the MIC ([7]; Table 2, broth dilution MIC in ug/ml, read-out: MIC S aureus ATCC 29213 MSSA) of the same molecule?
The MIC was 1 µg/mL (≈ 2.83 µM).

What about the MIC ([8]; Table 1, range 64 down to 0.12 μg/ml, read-out: MIC S. aureus BAA-39) of the same molecule?
Its MIC is 1 µg/mL (≈ 2.83 µM).

What about the MIC ([8]; Table 2, broth dilution MIC in ug/ml, read-out: MIC S aureus BAA-39 MDR) of the same molecule?
Its MIC is 1 µg/mL (≈ 2.83 µM).

What about the “MIC S. aureus BAA-39” value ([8]; Table 3, starting at 4 μg/ml) of the same molecule?
The value was 1 µg/mL (≈ 2.83 µM).

What about the MIC ([9]; Table 1, range 64 down to 0.12 μg/ml, read-out: MIC S. aureus ATCC 33591) of the same molecule?
The MIC was 1 µg/mL (≈ 2.83 µM).

And the MIC ([9]; Table 2, broth dilution MIC in ug/ml, read-out: MIC S aureus ATCC 33591 MRSA)?
Its MIC is 1 µg/mL (≈ 2.83 µM).

What about the “MIC S. aureus ATCC 33591” value ([9]; Table 3, starting at 4 μg/ml) of the same molecule?
Its value is 1 µg/mL (≈ 2.83 µM).

What about the MIC ([10]; ATCC13883, Table 1, range 64 down to 0.12 μg/ml, read-out: MIC K. pneumoniae ATCC 13883) of the same molecule?
Its MIC is over 64 µg/mL.

What about the MIC ([10]; ATCC13883, Table 2, broth dilution MIC in ug/ml, read-out: MIC K pneumonia ATCC 13883) of the same molecule?
Its MIC is 64 µg/mL (≈ 181 µM).

And the MIC ([11]; ATCC 25921 / ATCC 25922, Table 2, broth dilution MIC in ug/ml, read-out: MIC E. coli ATCC 25921)?
Its MIC is 1 µg/mL (≈ 2.83 µM).

What about the MIC ([11]; ATCC25922, Table 1, range 64 down to 0.12 μg/ml, read-out: MIC E. coli ATCC 25922) of the same molecule?
The MIC was 1 µg/mL (≈ 2.83 µM).

And the MIC ([12]; ATCC 9026 / ATCC 9027, Table 2, broth dilution MIC in ug/ml, read-out: MIC P aeruginosa ATCC 9026)?
Its MIC is 64 µg/mL (≈ 181 µM).

What about the MIC ([12]; ATCC9027, Table 1, range 64 down to 0.12 μg/ml, read-out: MIC P. aeruginosa ATCC 9027) of the same molecule?
The MIC was over 64 µg/mL.

What about the MIC ([13]; Enterococcus faecalis, Table 1, range 64 down to 0.12 μg/ml, read-out: MIC E. faecalis ATCC 29212) of the same molecule?
Its MIC is 0.5 µg/mL (≈ 1.41 µM).

And the MIC ([13]; Table 2, broth dilution MIC in ug/ml, read-out: MIC E faecalis ATCC 29212 VRE)?
Its MIC is 0.5 µg/mL (≈ 1.41 µM).

What about the “MIC E. faecalis ATCC 29212” value ([13]; Table 3, starting at 4 μg/ml) of the same molecule?
Its value is 0.5 µg/mL (≈ 1.41 µM).

What about the MIC [14] of the same molecule?
Its MIC is over 64 µg/mL.

And the MIC ([15]; Enterococcus faecium, Table 1, range 64 down to 0.12 μg/ml, read-out: MIC E. faecium ATCC 700221)?
The MIC was 0.25 µg/mL (≈ 0.707 µM).

What about the MIC ([15]; Enterococcus faecium, Table 3, starting at 4 μg/ml, read-out: MIC E. faecium ATCC 700221) of the same molecule?
The MIC was 0.25 µg/mL (≈ 0.707 µM).

What about the MIC ([15]; Table 2, broth dilution MIC in ug/ml, read-out: MIC E faecium ATCC 700221 VRE) of the same molecule?
The MIC was 0.25 µg/mL (≈ 0.707 µM).

And the MIC ([16]; ATCC6301, Table 1, range 64 down to 0.12 μg/ml, read-out: MIC S. pneumoniae ATCC 6301)?
The MIC was at most 0.12 µg/mL.

And the MIC ([16]; ATCC6301, Table 2, broth dilution MIC in ug/ml, read-out: MIC S pneumonia ATCC 6301 PSSP)?
The MIC was 0.06 µg/mL (≈ 0.17 µM).

What about the MIC ([16]; ATCC6301, Table 3, starting at 4 μg/ml, read-out: MIC S. pneumoniae ATCC 6301) of the same molecule?
Its MIC is 0.06 µg/mL (≈ 0.17 µM).
